According to US11384055B2 (BIOMARIN PHARMACEUTICAL INC., priority 2017, dated 2022):

Molecular target: T1, Human GO (Homo sapiens, UniProt Q9UJM8)
T1 construct: purchased Novus Biologicals NBP1-72412
T1 sequence (Q9UJM8 1-370): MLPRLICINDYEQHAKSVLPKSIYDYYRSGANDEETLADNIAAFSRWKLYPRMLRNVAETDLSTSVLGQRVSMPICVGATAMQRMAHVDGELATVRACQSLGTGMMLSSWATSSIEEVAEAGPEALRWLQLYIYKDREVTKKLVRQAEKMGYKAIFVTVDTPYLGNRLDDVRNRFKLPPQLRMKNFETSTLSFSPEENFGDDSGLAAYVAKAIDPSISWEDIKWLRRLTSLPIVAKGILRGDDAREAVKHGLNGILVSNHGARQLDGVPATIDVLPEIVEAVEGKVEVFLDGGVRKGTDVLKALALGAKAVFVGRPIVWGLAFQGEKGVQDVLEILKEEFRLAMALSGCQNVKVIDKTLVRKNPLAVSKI
Test: GO enzymatic assay (coupled fluorescence/HRP assay, glycolate substrate)
Type: biochemical
Conditions: Table 2; read-out: Range (range of IC50 values calculated from the enzymatic assays)
Outline: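 Human GO incubated with glycolate substrate in 50 mM potassium phosphate, pH 7, with varying inhibitor concentrations. Activity read by coupled HRP fluorescence. IC50 taken from variable-slope sigmoidal dose-response fits of percent inhibition relative to DMSO control.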

| SMILES | IC50 [nM] |
| --- | --- |
| O=C(O)c1[nH]nnc1-c1cc(OCC2CC2)ccc1Cl [Compound 219, 4-(2-chloro-5-(cyclopropylmethoxy)phenyl)-1H-1,2,3-triazole-5-carboxylic acid] | 1000 to 10000 |
| O=C(O)c1[nH]nnc1Oc1ccc(-c2cccc(N3CCCCC3)c2)cc1 [Compound 220, 4-((3′-(piperidin-1-yl)-[1,1′-biphenyl]-4-yl)oxy)-1H-1,2,3-triazole-5-carboxylic acid 2,2,2-trifluoroacetate] | < 100 |
| O=C(O)c1[nH]nnc1Oc1ccc(-c2ccc(N3CCCCC3)cc2)cc1 [Compound 221, 4-((4′-(piperidin-1-yl)-[1,1′-biphenyl]-4-yl)oxy)-1H-1,2,3-triazole-5-carboxylic acid 2,2,2-trifluoroacetate] | < 100 |
| CN1CCCc2cc(-c3ccc(Oc4nn[nH]c4C(=O)O)cc3)ccc21 [Compound 222, 4-(4-(1-methyl-1,2,3,4-tetrahydroquinolin-6-yl)phenoxy)-1H-1,2,3-triazole-5-carboxylic acid] | < 100 |
| O=C(O)c1[nH]nnc1Oc1ccc(-c2cccc3c2CCCC3)cc1 [Compound 223, 4-(4-(5,6,7,8-tetrahydronaphthalen-1-yl)phenoxy)-1H-1,2,3-triazole-5-carboxylic acid 2,2,2-trifluoroacetate] | < 100 |
| O=C(O)c1[nH]nnc1Oc1ccc(-c2cccc(CN3CCCCC3=O)c2)cc1 [Compound 224, 4-((3′-((2-oxopiperidin-1-yl)methyl)-[1,1′-biphenyl]-4-yl)oxy)-1H-1,2,3-triazole-5-carboxylic acid] | < 100 |
| N#Cc1ccc(-c2ccc(Oc3nn[nH]c3C(=O)O)cc2)cc1 [Compound 225, 4-((4′-cyano-[1,1′-biphenyl]-4-yl)oxy)-1H-1,2,3-triazole-5-carboxylic acid] | < 100 |
| CC(C)N1CCc2ccc(Oc3nn[nH]c3C(=O)O)cc2C1 [Compound 226, 4-((2-isopropyl-1,2,3,4-tetrahydroisoquinolin-7-yl)oxy)-1H-1,2,3-triazole-5-carboxylic acid 2,2,2-trifluoroacetate] | 1000 to 10000 |
| O=C(O)c1[nH]nnc1OCc1ccc2cc(Cl)ccc2c1 [Compound 227, 4-((6-chloronaphthalen-2-yl)methoxy)-1H-1,2,3-triazole-5-carboxylic acid 2,2,2-trifluoroacetate] | < 100 |
| O=C(O)c1[nH]nnc1Oc1ccc(-c2cccc(C3CCCCC3)c2)cc1 [Compound 228, 4-((3′-cyclohexyl-[1,1′-biphenyl]-4-yl)oxy)-1H-1,2,3-triazole-5-carboxylic acid] | < 100 |
| O=C(O)c1c(Oc2ccc(Cl)c(Cl)c2)nnn1COC(=O)C1CCCCC1 [Compound 229, 1-(((cyclohexanecarbonyl)oxy)methyl)-4-(3,4-dichlorophenoxy)1H-1,2,3-triazole-5-carboxylic acid] | 100 to 1000 |
| COCCOc1cccc(-c2ccc(Oc3nn[nH]c3C(=O)O)cc2)c1 [Compound 230, 4-((3′-(2-methoxyethoxy)-[1,1′-biphenyl]-4-yl)oxy)-1H-1,2,3-triazole-5-carboxylic acid] | < 100 |
| O=C(O)c1[nH]nnc1Oc1ccc2c(c1)OCCO2 [Compound 231, 4-((2,3-dihydrobenzo[b][1,4]dioxin-6-yl)oxy)-1H-1,2,3-triazole-5-carboxylic acid 2,2,2-trifluoroacetate] | < 100 |
| O=C(O)c1[nH]nnc1Oc1ccc(-c2cccc(OCC3CC3)c2)cc1 [Compound 232, 4-((3′-(cyclopropylmethoxy)-[1,1′-biphenyl]-4-yl)oxy)-1H-1,2,3-triazole-5-carboxylic acid] | < 100 |
| CC(=O)N1CCN(c2cccc(-c3ccc(Oc4nn[nH]c4C(=O)O)cc3)c2)CC1 [Compound 233, 4-((3′-(4-acetylpiperazin-1-yl)-[1,1′-biphenyl]-4-yl)oxy)-1H-1,2,3-triazole-5-carboxylic acid 2,2,2-trifluoroacetate] | < 100 |
